According to patent publication US12391682B2, “Isoquinoline derivatives and their use for the treatment of parasitic infections” (Elanco Animal Health GmbH, priority 2019, dated 2025):

How the values were obtained:
[1] = target: D. immitis Slo-1 (Dirofilaria immitis, UniProt I0DFK5); assay: In Vitro Assay 2: D. immitis Slo-1, membrane potential measurement in stable recombinant CHO cell line; assay type: cell-based
[2] = test system: Dirofilaria immitis microfilariae; assay: In Vitro Assay 4: Dirofilaria immitis microfilariae (DIROIM L1), motility; conditions: 72 h, read-out: EC50 (reduction of motility in comparison to the negative control)
[3] = test system: Dirofilaria immitis; assay: In Vitro Assay 5: Dirofilaria immitis (DIROIM L4), motility; conditions: 72 h, read-out: EC50 (reduction of motility in comparison to the negative control)
[4] = test system: Adult Nippostrongylus brasiliensis; assay: In Vitro Assay 3: Nippostrongylus brasiliensis (NIPOBR), acetylcholine esterase readout; conditions: at 10 μg/ml (10 ppm), adult worms, read-out: activity (reduction of AChE compared to negative control)
Method: In Vitro Assay 3: Nippostrongylus brasiliensis (NIPOBR)
Adult Nippostrongylus brasiliensis were washed with saline buffer containing 100 U/ml penicillin, 0.1 mg/ml streptomycin and 2.5 μg/ml amphotericin B. Test compounds were dissolved in DMSO and worms were incubated in medium in a final concentration of 10 μg/ml (10 ppm). An aliquot of the medium was used to determine the acetylcholine esterase activity in comparison to a negative control. The principle of measuring acetylcholine esterase as readout for anthelmintic activity was described in Rapson et al (1986) and Rapson et al (1987).

[5] = target: C. elegans Slo-1a (Caenorhabditis elegans, UniProt Q95V25)
C. elegans Slo-1a, sequence (Q95V25 whole entry): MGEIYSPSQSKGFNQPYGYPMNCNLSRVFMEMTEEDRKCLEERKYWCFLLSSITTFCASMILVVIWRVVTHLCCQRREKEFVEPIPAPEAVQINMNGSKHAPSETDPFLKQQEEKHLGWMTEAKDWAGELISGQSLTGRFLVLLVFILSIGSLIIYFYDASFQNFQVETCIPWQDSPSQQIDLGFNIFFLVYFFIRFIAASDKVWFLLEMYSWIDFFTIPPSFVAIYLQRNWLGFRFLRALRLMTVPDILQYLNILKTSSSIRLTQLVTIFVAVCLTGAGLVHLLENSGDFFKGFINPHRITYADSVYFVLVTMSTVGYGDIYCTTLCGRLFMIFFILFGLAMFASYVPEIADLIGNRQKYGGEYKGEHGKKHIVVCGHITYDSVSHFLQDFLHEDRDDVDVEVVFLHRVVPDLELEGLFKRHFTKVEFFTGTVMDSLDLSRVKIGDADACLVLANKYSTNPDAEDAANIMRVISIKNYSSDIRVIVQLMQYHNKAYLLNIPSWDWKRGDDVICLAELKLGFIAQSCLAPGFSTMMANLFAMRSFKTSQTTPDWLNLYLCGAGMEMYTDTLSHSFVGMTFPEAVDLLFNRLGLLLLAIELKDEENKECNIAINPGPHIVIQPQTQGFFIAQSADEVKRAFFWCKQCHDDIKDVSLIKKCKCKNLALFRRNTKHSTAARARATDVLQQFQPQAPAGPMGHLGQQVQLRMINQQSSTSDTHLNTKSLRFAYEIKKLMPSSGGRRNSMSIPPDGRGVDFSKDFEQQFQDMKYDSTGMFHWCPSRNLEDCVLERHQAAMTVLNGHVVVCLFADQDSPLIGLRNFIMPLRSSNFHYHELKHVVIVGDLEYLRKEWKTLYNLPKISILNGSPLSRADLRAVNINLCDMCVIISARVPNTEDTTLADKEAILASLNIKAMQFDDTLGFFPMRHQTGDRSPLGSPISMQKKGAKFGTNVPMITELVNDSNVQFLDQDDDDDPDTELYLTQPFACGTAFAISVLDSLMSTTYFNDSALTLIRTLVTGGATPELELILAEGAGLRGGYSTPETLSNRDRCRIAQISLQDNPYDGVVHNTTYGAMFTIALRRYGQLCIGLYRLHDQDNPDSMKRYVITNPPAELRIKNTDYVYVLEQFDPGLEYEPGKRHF
Method: In Vitro Assay 1: C. elegans Slo-1a—Action at a Recombinant C. elegans Cell Line
Generation of a Stable Caenorhabditis elegans CHO Cell Line
A CHO cell line was obtained from ATCC, code ATCC CRL-9096. For transfection with plasmid DNA to express C. elegans Slo-1a (accession number AAL28102)CHO cells were passaged to 40% confluence before adding the transfection solution to the cell culture. The transfection solution included 300 μL OptiMEM (Life Technologies, Nr.: 31985), 2 μL (=6 μg) of plasmid DNA containing the C. elegans Slo 1a gene and 9 μL FugeneHD (Promega, Nr.: E2311), and was added to the cells prior to incubation for 48 hours at 37° C., 5% CO2. The transfection medium was exchanged for the selection medium which contains additional G418 (2 mg/ml, Invitrogen, Nr.: 10131) and the cells were seeded into 384 well plates (300 cells/well). […]
After starting the measurement of fluorescence using a FLIPR Tetra (Molecular Devices, Exc. 510-545 nm, Emm. 565-625 n), test compounds were added followed by the addition of KCl tyrode (final assay concentration: 70 mM KCl, 2 mM CaCl2, 1 mM MgCl2, 0.8 mM NaH2PO4, 5 mM Glucose, 28 mM Hepes, pH 7.4, including the voltage sensitive dye). […]
The data were evaluated by using the ActivityBase XLfit software (IDBS) for curve fitting and calculation of the half-maximal effective concentration (EC50) and are reported as negative decadic logarithm (pE50).

D. immitis Slo-1, sequence (I0DFK5 1-1119): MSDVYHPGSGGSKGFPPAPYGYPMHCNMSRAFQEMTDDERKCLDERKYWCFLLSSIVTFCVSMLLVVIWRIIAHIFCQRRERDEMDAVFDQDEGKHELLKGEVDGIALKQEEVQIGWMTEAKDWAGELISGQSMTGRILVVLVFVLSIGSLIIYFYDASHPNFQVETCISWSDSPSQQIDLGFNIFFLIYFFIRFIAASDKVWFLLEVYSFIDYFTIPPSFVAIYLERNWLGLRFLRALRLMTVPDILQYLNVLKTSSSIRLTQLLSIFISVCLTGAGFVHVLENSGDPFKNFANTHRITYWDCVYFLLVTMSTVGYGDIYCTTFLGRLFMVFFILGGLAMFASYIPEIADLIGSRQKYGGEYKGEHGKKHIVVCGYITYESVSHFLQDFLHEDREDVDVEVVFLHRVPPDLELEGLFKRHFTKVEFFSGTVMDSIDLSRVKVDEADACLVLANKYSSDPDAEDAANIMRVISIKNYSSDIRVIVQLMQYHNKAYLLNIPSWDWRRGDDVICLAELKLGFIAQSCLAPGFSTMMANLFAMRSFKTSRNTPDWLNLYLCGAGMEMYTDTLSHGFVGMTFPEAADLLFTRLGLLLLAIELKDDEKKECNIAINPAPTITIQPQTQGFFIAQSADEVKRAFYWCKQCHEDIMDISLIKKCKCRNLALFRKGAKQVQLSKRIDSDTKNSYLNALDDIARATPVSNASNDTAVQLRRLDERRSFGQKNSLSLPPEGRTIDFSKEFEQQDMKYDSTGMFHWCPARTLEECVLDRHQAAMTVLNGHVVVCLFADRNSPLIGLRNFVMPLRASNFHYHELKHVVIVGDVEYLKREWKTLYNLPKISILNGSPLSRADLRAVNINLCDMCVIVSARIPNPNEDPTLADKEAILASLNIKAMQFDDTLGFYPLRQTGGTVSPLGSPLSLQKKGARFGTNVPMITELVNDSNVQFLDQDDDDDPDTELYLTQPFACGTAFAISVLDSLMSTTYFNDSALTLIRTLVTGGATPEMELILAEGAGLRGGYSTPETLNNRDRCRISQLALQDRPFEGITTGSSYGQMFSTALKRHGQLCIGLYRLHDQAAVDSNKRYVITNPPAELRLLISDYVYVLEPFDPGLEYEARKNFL

| SMILES | EC50 [1] [nM] | EC50 [2] [µg/mL] | EC50 [3] [µg/mL] | inhibition at 10 µg/mL [4] [%] | EC50 [5] [nM] |
| --- | --- | --- | --- | --- | --- |
| O=C(N[C@H]1CCOc2ccccc21)c1ncc2c(-c3cc(F)cc(F)c3F)cccc2c1N1CCOCC1 [Example I-1, N-[(4S)-3,4-dihydro-2H-chromen-4-yl]-4-(morpholin-4-yl)-8-(2,3,5-trifluorophenyl)isoquinoline-3-carboxamide] | 3.16 to 31.6 | < 0.1 | < 0.1 | > 80 | – |
| Cc1c(C(=O)N[C@H]2CCOc3ccccc32)ncc2c(-c3cc(F)cc(F)c3F)cccc12 [Example I-2, N-[(4S)-3,4-dihydro-2H-chromen-4-yl]-4-methyl-8-(2,3,5-trifluorophenyl)isoquinoline-3-carboxamide] | 316 to 5010 | < 0.1 | < 0.1 | > 80 | – |
| CC(C)c1c(C(=O)N[C@H]2CCOc3ccccc32)ncc2c(-c3cc(F)cc(F)c3F)cccc12 [Example I-3, N-[(4S)-3,4-dihydro-2H-chromen-4-yl]-4-isopropyl-8-(2,3,5-trifluorophenyl)isoquinoline-3-carboxamide] | 31.6 to 316 | < 0.1 | < 0.1 | > 80 | – |
| CC(C)c1c(C(=O)N[C@H]2CCOc3ccccc32)ncc2c(-c3cc(Cl)cc(Cl)c3)cccc12 [Example I-4] | 31.6 to 316 | < 0.1 | < 0.1 | > 80 | – |
| Cc1c(C(=O)N[C@H]2CCc3ccccc32)ncc2c(-c3cc(F)cc(F)c3F)cccc12 [Example I-7] | 316 to 5010 | < 0.1 | < 1 | > 80 | – |
| O=C(N[C@H]1CCCc2ccccc21)c1ncc2c(-c3cc(Cl)cc(Cl)c3)cccc2c1N1CCOCC1 [Example I-8] | 316 to 5010 | < 0.1 | < 0.1 | > 80 | 3.16 to 31.6 |
| O=C(N[C@H]1CCCc2ccccc21)c1ncc2c(-c3cc(F)cc(F)c3F)cccc2c1N1CCOCC1 [Example I-9] | 31.6 to 316 | < 0.1 | < 0.1 | > 80 | – |
| O=C(N[C@H]1CCOc2ccccc21)c1ncc2c(-c3cc(Cl)cc(Cl)c3)cccc2c1N1CCOCC1 [Example I-11] | 316 to 5010 | < 0.1 | < 0.1 | > 80 | – |
| CC(C)(C)c1cc(Cl)cc(-c2cccc3c(N4CCOCC4)c(C(=O)N[C@H]4CCOc5ccccc54)ncc23)c1 [Example I-12] | 316 to 5010 | < 0.1 | < 0.1 | > 80 | – |
| Cc1c(C(=O)N[C@H]2CCOc3ccccc32)ncc2c(-c3cc(Cl)cc(Cl)c3)cccc12 [Example I-13] | – | < 0.1 | < 1 | > 80 | 31.6 to 316 |
| O=C(NC1CCSc2ccc(F)cc21)c1ncc2c(-c3cc(F)cc(F)c3F)cccc2c1N1CCOCC1 (centres unmarked) [Example I-15] | 316 to 5010 | < 1 | < 0.1 | – | – |
| O=C(N[C@H]1CCOc2ccccc21)c1cnc2c(Br)cccc2c1N1CCOCC1 [IC-1, 8-Bromo-N-[(4S)-3,4-dihydro-2H-chromen-4-yl]-4-(morpholin-4-yl)quinoline-3-carboxamide] | – | < 10 | – | – | – |
| Cc1c(C(=O)N[C@H]2CCOc3ccccc32)ncc2c(Br)cccc12 [IC-2, 8-Bromo-N-[(4S)-3,4-dihydro-2H-chromen-4-yl]-4-methylisoquinoline-3-carboxamide] | – | < 10 | – | – | – |
| CC(C)c1c(C(=O)N[C@H]2CCOc3ccccc32)ncc2c(Br)cccc12 [IC-3, 8-Bromo-N-[(4S)-3,4-dihydro-2H-chromen-4-yl]-4-isopropylisoquinoline-3-carboxamide] | – | < 10 | – | – | – |
